Measurements reported in US7312356B2, “Medicament” (Cyclacel Limited, priority 2001, dated 2007).

Work on `CC(=O)OC[C@@]1(C(=O)O)CC[C@]2(C)C(CCC3[C@@]4(C)CC[C@H](OC(C)=O)C(C)(C)C4CC[C@]32C)C1=O` (stereo partly drawn) [(7), 3β,28-Diacetoxy-18-oxo-19,20,21,29,30-pentanorlupan-22-oic Acid] yielded a melting point of 142 to 144 °C.
